Data published in patent US7812014B2, “Bicyclic 6-alkylidene-penems as β-lactamase inhibitors” (priority 2002, dated 2010).
Read-outs that look alike come from different tables or passages of the source.

Tests used:
[1] = biological target: class A β-lactamase TEM-1 (Escherichia coli, UniProt P62593); test: IC50 determination, β-lactamase inhibition (nitrocefin, spectrophotometric); format: biochemical, E. coli; conditions: enzyme 4.3 nM; 10 minutes preincubation at 25° C.; nitrocefin 50 μg/ml; pH 7.0
Protocol: (§1) IC50 Determination for the Penem Inhibitor
(§2) β-Lactamase inhibitory activity of the penem inhibitors was determined spectrophotometrically as described by Bush et al., [Bush, K., Macalintal, C., Rasmussen, B. A., Lee, V. and Yang, Y. Antimicrobial Agents and Chemotherapy 1993, 37, 851]. Homogeneously purified class A β-lactamases TEM-1 from E. coli and Imi-1 from Enterobacter cloacae, class B enzyme CcrA from Bacteroides fragilis and class C enzyme AmpC from Enterobacter cloaca were employed in the assay. The enzyme concentrations for TEM-1, Imi-1, CcrA and AmpC were 4.3, 7.1, 1.2 and 2.1 nM, respectively. A wide range of inhibitor concentrations were prepared in 50 mM PO4, pH 7.0 to include the possible IC50 values. The substrate used to initiate the enzyme reaction was nitrocefin at 50 μg/ml in the same buffer as the inhibitor. Initially the enzyme and inhibitor (20 μl each) were preincubated for 10 minutes at 25° C. prior to the addition of 160 μl volume of nitrocefin. Initial rates of hydrolysis were monitored for 5 minutes at 495 nm using a Molecular Devices Spectra Max 250 with kinetic protocol of SoftMax Program. Readings from the Spectra Max 250 were exported and transferred to Microsoft Excel. The percent of inhibition of each inhibitor concentration was calculated based on the control enzyme activity. The inhibitor concentration that caused a 50% reduction in the enzymatic activity (IC50) was determined graphically.

[2] = biological target: class A β-lactamase Imi-1 (Enterobacter cloacae, UniProt Q46991); test: as above; format: biochemical; conditions: enzyme 7.1 nM; 10 minutes preincubation at 25° C.; nitrocefin 50 μg/ml; pH 7.0; read-out: IC50 (nM) Class A Imi
Protocol: as §1, §2

[3] = biological target: class B enzyme CcrA (Bacteroides fragilis, UniProt P25910); test: as above; format: biochemical; conditions: enzyme 1.2 nM; 10 minutes preincubation at 25° C.; nitrocefin 50 μg/ml; pH 7.0; read-out: IC50 (nM) Class B Ccr
Protocol: as §1, §2

[4] = biological target: class C enzyme AmpC (Enterobacter cloacae, UniProt P05364); test: biochemical; parameters: species or system Enterobacter cloaca; conditions: enzyme 2.1 nM; 10 minutes preincubation at 25° C.; nitrocefin 50 μg/ml; pH 7.0; read-out: IC50 (nM) Class C AmpC
Protocol: as §1, §2

[5] = tested on: E. Coli GC22033; test: Antimicrobial susceptibility testing, microbroth dilution, piperacillin + inhibitor; format: cell-based; conditions: piperacillin combined with constant 4 ug/ml of inhibitor; 35° C. for 18 hours
Protocol: (§3) Antimicrobial susceptibility testing. The in vitro activities of the antibiotics were determined by the microbroth dilution method as recommended by the National Committee for Clinical Laboratory Standards (NCCLS). (NCCLS. 2000. Methods for Dilution Antimicrobial Susceptibility Tests for Bacteria That Grow Aerobically; Approved Standards: M7-A5, vol. 19. National Committe for Clinical Laboratory Standards, Villanova, Pa.). Mueller-Hinton II broth (MHBII) (BBL Cockeysville, Md.), was used for the testing procedure. Microtiter plates containing 50 μl per well of two-fold serial dilutions of piperacillin combined with a constant amount (4 ug/ml) of a B-lactamase inhibitor were inoculated with 50 μl of inoculum to yield the appropriate density (10^5 CFU/ml) in 100·I final volume. The plates were incubated for 18-22 hours at 35° C. in ambient air. […] The MIC data obtained by the above said procedure are enlisted in Table 2.

[6] = tested on: E. Coli GC2844; test: as above; format: cell-based; conditions: piperacillin combined with constant 4 ug/ml of inhibitor; 35° C. for 18 hours
Protocol: as §3

[7] = tested on: E. Coli GC2847 (TEM-1); test: as above; format: cell-based; conditions: piperacillin combined with constant 4 ug/ml of inhibitor; 35° C. for 18 hours
Protocol: as §3

[8] = tested on: E. Coli GC2894 (Ampc); test: as above; format: cell-based; conditions: piperacillin combined with constant 4 ug/ml of inhibitor; 35° C. for 18 hours
Protocol: as §3

[9] = tested on: E. Coli GC2920 (IRT-2); test: as above; format: cell-based; conditions: piperacillin combined with constant 4 ug/ml of inhibitor; 35° C. for 18 hours
Protocol: as §3

[10] = tested on: S. aureus GC2216; test: as above; format: cell-based; conditions: piperacillin combined with constant 4 ug/ml of inhibitor; 35° C. for 18 hours
Protocol: as §3

[11] = tested on: E. Cloacae GC1477 (Ampc); test: as above; format: cell-based; conditions: piperacillin combined with constant 4 ug/ml of inhibitor; 35° C. for 18 hours
Protocol: (§4) Antimicrobial susceptibility testing. The in vitro activities of the antibiotics were determined by the microbroth dilution method as recommended by the National Committee for Clinical Laboratory Standards (NCCLS). (NCCLS. 2000. Methods for Dilution Antimicrobial Susceptibility Tests for Bacteria That Grow Aerobically; Approved Standards: M7-A5, vol. 19. National Committe for Clinical Laboratory Standards, Villanova, Pa.). Mueller-Hinton II broth (MHBII) (BBL Cockeysville, Md.), was used for the testing procedure. Microtiter plates containing 50 μl per well of two-fold serial dilutions of piperacillin combined with a constant amount (4 ug/ml) of a B-lactamase inhibitor were inoculated with 50 μl of inoculum to yield the appropriate density (10^5 CFU/ml) in 100·I final volume. The plates were incubated for 18-22 hours at 35° C. in ambient air.

[12] = tested on: P. aeruginos GC1764 (Ampc); test: as above; format: cell-based; conditions: piperacillin combined with constant 4 ug/ml of inhibitor; 35° C. for 18 hours
Protocol: as §4

[13] = tested on: S. Marcescens GC1781 Sme-1 + Ampc; test: as above; format: cell-based; conditions: piperacillin combined with constant 4 ug/ml of inhibitor; 35° C. for 18 hours
Protocol: as §4

[14] = tested on: Clinical isolates that have been adapted to cause infection in mice; test: In vivo antibacterial protection, 7 day survival of infected mice; parameters: species or system mice strain CD-1
From the text: In Vivo Antibacterial Protection
Female mice strain CD-1, approximately 18-22 grams, were received from Charles River Laboratories and quarantined 7 days prior to use. In addition, mice may be rendered neutropenic using cytoxan.
Clinical isolates that have been adapted to cause infection in mice, are used in the experiment, including infections with strains of E. coli, K. pneumoniae, M. morganii, E. cloacae, S. marcescens, C. freundii, staphylococci, streptococci, P. aeruginosa and N. gonorrhoeae.
Mice are challenged by injecting 0.5 ml intraperitoneally or 0.05 ml intranasally of a predetermined bacterial inoculum suspended in broth, saline or hog gastric mucin (supplemented with dried bovine hemoglobin for N. gonorrhoeae). […] Antibacterial doses (dose concentration prepared by two fold serial dilutions of the antibiotic) are dissolved or suspended in 0.2% aqueous agar or methocel, phosphate buffered saline or an adjuvant are administered orally, subcutaneously or intravenously in the following manner: • a) Orally or subcutaneously: Dose volume of 0.5 ml administered ½ hr after infection. A second dose may be administered 3 hr. after infection for treatment of infections with more virulent organisms. • b) Intravenously: Dose volume of 0.2 ml, administered ½ hr. after infection. For the treatment of infections with more virulent organisms, more doses, up to 48 hr may be administered. (Intravenous dosing will not exceed 3 doses/24 hr period.) • c) Oral pretreatment: Under special circumstances, the pH of the stomach needs to be adjusted in order to increase the gastric stability of the antibiotic. For this purpose, 0.5 ml of phosphate buffered saline (pH7.8, 0.06M) (or specific approved adjuvant) is administered orally ½ hr after infection, followed 5 minutes later by 0.5 ml of antibiotic (also orally) contained in phosphate buffered saline (pH7.8, 0.06M). Animal Species
A detailed explanation as to the number of animals needed for the determination of in vivo efficacy follows: • A) Novel antibiotics are tested at 5 different dose levels with 5 mice per dose level at each of three routes of administration (oral, subcutaneous and intravenous). […] This would require 25 mice/route with 3 routes/antibiotic or 75 mice per novel compound tested. One to two novel antibiotics will be tested per experiment (75-150 mice) • B) The effectiveness of the new compound must be compared to that of a standard, or antibiotic of known effectiveness. Known or previously tested antibiotics are tested at 5 dose levels with 5 mice per dose level by a single route of administration, for a total of 25 mice/antibiotic. Usually 3-6 antibiotics will be tested per experiment. (75-150 mice). • C) Untreated controls—In each of the above tests, untreated animals are infected with 3 different concentrations of bacterial inoculum with 10 mice per concentration (30 mice total in each and every test). These untreated controls are used to determine and maintain the infection level between 10-100 LD50s as required for test to test comparison and validity. Determination of Protective Effects of Antibacterial Agents:
The protective effects of the antibacterial agent(s) are measured by the survival of the infected untreated as compared to the treated animals. […] A census of survivors is taken twice daily and at that time dead as well as moribund animals are removed. […] The test is performed three times on separate days to provide a statistically valid number of animals and to minimize variation in test results on a day to day and test to test basis.

[15] = Ratio of Piperacillin vs. Inhibitor not given
[16] = Mus musculus, 168 h, Ratio of Piperacillin vs. Inhibitor 4:1, read-out: ED50

Chain of class C enzyme AmpC (P05364 21-381): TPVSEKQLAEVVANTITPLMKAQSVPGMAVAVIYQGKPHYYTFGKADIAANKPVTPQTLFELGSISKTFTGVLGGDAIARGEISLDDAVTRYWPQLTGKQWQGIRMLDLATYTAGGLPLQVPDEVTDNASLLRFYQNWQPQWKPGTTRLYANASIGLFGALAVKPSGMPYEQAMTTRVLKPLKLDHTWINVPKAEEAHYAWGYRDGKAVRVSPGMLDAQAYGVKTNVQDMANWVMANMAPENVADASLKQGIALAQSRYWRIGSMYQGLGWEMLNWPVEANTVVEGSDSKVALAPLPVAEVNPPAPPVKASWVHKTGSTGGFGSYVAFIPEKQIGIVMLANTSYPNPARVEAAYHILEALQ
Chain of class A β-lactamase TEM-1 (P62593 24-286 limits assumed): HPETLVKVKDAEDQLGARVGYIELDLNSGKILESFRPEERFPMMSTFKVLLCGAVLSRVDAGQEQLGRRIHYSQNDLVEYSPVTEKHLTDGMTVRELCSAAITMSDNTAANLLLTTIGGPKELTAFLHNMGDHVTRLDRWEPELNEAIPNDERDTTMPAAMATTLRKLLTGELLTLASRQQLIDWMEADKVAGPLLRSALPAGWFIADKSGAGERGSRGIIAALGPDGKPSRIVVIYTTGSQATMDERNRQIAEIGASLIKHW
Chain of class B enzyme CcrA (P25910 19-249): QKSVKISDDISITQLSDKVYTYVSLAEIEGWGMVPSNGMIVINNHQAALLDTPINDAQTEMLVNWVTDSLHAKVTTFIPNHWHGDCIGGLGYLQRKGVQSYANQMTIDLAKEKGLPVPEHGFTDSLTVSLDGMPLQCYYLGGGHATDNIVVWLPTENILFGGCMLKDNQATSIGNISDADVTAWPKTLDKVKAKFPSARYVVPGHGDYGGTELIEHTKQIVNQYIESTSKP
Chain of class A β-lactamase Imi-1 (Q46991 28-292): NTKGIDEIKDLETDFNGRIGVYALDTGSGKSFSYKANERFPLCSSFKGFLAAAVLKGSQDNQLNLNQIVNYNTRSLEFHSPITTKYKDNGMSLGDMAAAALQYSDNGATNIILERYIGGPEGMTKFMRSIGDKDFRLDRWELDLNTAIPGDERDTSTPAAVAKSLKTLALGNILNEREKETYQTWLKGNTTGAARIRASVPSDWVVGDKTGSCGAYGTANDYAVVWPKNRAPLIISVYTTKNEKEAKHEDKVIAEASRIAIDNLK

Row | Structure (SMILES) | IC50 [1] [nM] | IC50 [2] [nM] | IC50 [3] [nM] | IC50 [4] [nM] | Minimal Inhibitory Concentration E. Coli GC22033 [5] [µg/mL] | Minimal Inhibitory Concentration E. Coli GC2844 [6] [µg/mL] | Minimal Inhibitory Concentration E. Coli GC2847 (TEM-1) [7] [µg/mL] | Minimal Inhibitory Concentration E. Coli GC2894 (Ampc) [8] [µg/mL] | Minimal Inhibitory Concentration E. Coli GC2920 (IRT-2) [9] [µg/mL] | Minimal Inhibitory Concentration S. aureus GC2216 [10] [µg/mL] | Minimal Inhibitory Concentration E. Cloacae GC1477 (Ampc) [11] [µg/mL] | Minimal Inhibitory Concentration P. aeruginos GC1764 (Ampc) [12] [µg/mL] | Minimal Inhibitory Concentration S. Marcescens GC1781 Sme-1 + Ampc [13] [µg/mL] | ED50 [14, 15] [mg/kg] | ED50 ([14]; Ratio of Piperacillin vs. Inhibitor 4:1) [mg/kg] | ED50 [14, 16] [mg/kg] | melting point [°C]
1 | O=C([O-])C1=CS[C@@H]2/C(=C\c3cc4n(n3)CCCO4)C(=O)N12.[Na+] [Example 36, (5R)(6Z)-6-(6,7-5H-Dihydropyrazolo[5,1-b]oxazin-2-ylmethylene)-7-oxo-4-thia-1-azabicyclo[3.2.0]hept-2-ene-2-carboxylic acid, sodium salt] | 6.3 | 413 | 140 | 4.5 | 4 | 2 | 4 | 2 | 2 | 0.06 | 16 | 1 | 1 | 90 | – | – | –
2 | COc1ccc(CN2CCc3sc(/C=C4/C(=O)N5C(C(=O)O)=CS[C@H]45)cc3C2)cc1 [Example 4] | – | – | – | – | 2 | 2 | 8 | 2 | 2 | 0.50 | 64 | 32 | 2 | – | 32 to 64 | – | –
3 | O=C(O)C1=CS[C@@H]2/C(=C\c3cc4c(s3)CCN(C(=O)Cc3ccccc3)C4)C(=O)N12 [Example 23] | 4.6 | 40 | 140 | 7.8 | – | – | – | – | – | – | – | – | – | – | – | 128 | 166 to 169
4 | CC(=O)N1CCc2sc(/C=C3/C(=O)N4C(C(=O)[O-])=CS[C@H]34)cc2C1.[Na+] (single isomer, unassigned) [Example 34] | – | – | – | – | 2 | 4 | 32 | 32 | 4 | – | >64 | 32 | 2 | 32 | – | – | –
5 | O=C(O)C1=CS[C@@H]2/C(=C\c3cc4c(s3)CCN(C(=O)c3cccnc3)C4)C(=O)N12 [Example 22] | 6.1 | 42 | 110 | 11 | – | – | – | – | – | – | – | – | – | – | – | 128 | 195
